Test results as given in PubChem BioAssay (NCI).
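Following 48 hours of exposure in 96-well plates, responses at five concentrations were used to interpolate endpoints linearly. TGI: total growth inhibition.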

Tests used:
Assay in all cases: inhibition of tumour cell growth, NCI panel, 48 h
[1] = system: 786-0 renal
[2] = system: A498 renal
[3] = system: A549 NSCLC
[4] = system: ACHN renal
[5] = system: CAKI-1 renal
[6] = system: CCRF-CEM leukemia
[7] = system: COLO 205 colon
[8] = system: DU-145 prostate
[9] = system: EKVX NSCLC
[10] = system: HCC-2998 colon
[11] = system: HCT-116 colon
[12] = system: HL-60(TB) leukemia
[13] = system: HOP-62 NSCLC
[14] = system: HOP-92 NSCLC
[15] = system: HS 578T breast
[16] = system: HT29 colon
[17] = system: IGROV1 ovarian
[18] = system: K-562 leukemia
[19] = system: KM12 colon
[20] = system: LOX IMVI melanoma
[21] = system: M14 melanoma
[22] = system: MALME-3M melanoma
[23] = system: MCF7 breast
[24] = system: MDA-MB-231 breast
[25] = system: MDA-MB-435
[26] = system: MDA-N
[27] = system: MOLT-4 leukemia
[28] = system: NCI-H226 lung
[29] = system: NCI-H23 lung
[30] = system: NCI-H460 lung
[31] = system: NCI-H522 lung
[32] = system: NCI/ADR-RES ovarian
[33] = system: OVCAR-3 ovarian
[34] = system: OVCAR-4 ovarian
[35] = system: OVCAR-5 ovarian
[36] = system: OVCAR-8 ovarian
[37] = system: PC-3 prostate
[38] = system: RPMI-8226 leukemia
[39] = system: RXF 393 renal
[40] = system: SF-268 CNS
[41] = system: SF-295 CNS
[42] = system: SF-539 CNS
[43] = system: SK-MEL-2 melanoma
[44] = system: SK-MEL-28 melanoma
[45] = system: SK-MEL-5 melanoma
[46] = system: SK-OV-3 ovarian
[47] = system: SN12C renal
[48] = system: SNB-19 CNS
[49] = system: SNB-75 CNS
[50] = system: SR leukemia
[51] = system: SW-620 colon
[52] = system: T-47D breast
[53] = system: TK-10 renal
[54] = system: U251 CNS
[55] = system: UACC-257 melanoma
[56] = system: UACC-62 melanoma
[57] = system: UO-31 renal
[58] = system: BT-549 breast
[59] = system: HCT-15 colon

SMILES: CCOC(=O)C(=Cn1c(=S)[nH]c2ccc([N+](=O)[O-])cc21)C(=O)OCC
- TGI [1]: > 100 µM
- TGI [2]: > 100 µM
- TGI [3]: > 100 µM
- TGI [4]: > 100 µM
- TGI [5]: > 100 µM
- TGI [6]: > 100 µM
- TGI [7]: > 100 µM
- TGI [8]: > 100 µM
- TGI [9]: > 100 µM
- TGI [10]: > 100 µM
- TGI [11]: > 100 µM
- TGI [12]: > 100 µM
- TGI [13]: > 100 µM
- TGI [14]: > 100 µM
- TGI [15]: > 100 µM
- TGI [16]: > 100 µM
- TGI [17]: > 100 µM
- TGI [18]: > 100 µM
- TGI [19]: > 100 µM
- TGI [20]: > 100 µM
- TGI [21]: > 100 µM
- TGI [22]: > 100 µM
- TGI [23]: > 100 µM
- TGI [24]: > 100 µM
- TGI [25]: > 100 µM
- TGI [26]: > 100 µM
- TGI [27]: > 100 µM
- TGI [28]: > 100 µM
- TGI [29]: > 100 µM
- TGI [30]: > 100 µM
- TGI [31]: > 100 µM
- TGI [32]: > 100 µM
- TGI [33]: > 100 µM
- TGI [34]: > 100 µM
- TGI [35]: > 100 µM
- TGI [36]: > 100 µM
- TGI [37]: > 100 µM
- TGI [38]: > 100 µM
- TGI [39]: > 100 µM
- TGI [40]: > 100 µM
- TGI [41]: > 100 µM
- TGI [42]: > 100 µM
- TGI [43]: > 100 µM
- TGI [44]: > 100 µM
- TGI [45]: > 100 µM
- TGI [46]: > 100 µM
- TGI [47]: > 100 µM
- TGI [48]: > 100 µM
- TGI [49]: > 100 µM
- TGI [50]: > 100 µM
- TGI [51]: > 100 µM
- TGI [52]: > 100 µM
- TGI [53]: > 100 µM
- TGI [54]: > 100 µM
- TGI [55]: > 100 µM
- TGI [56]: > 100 µM
- TGI [57]: > 100 µM

SMILES: COc1ccc(/C=N/n2c(Cc3ccc(Cl)cc3)n[nH]c2=O)c(OC)c1
- TGI [1]: 52.8 µM
- TGI [2]: 51.1 µM
- TGI [3]: > 100 µM
- TGI [4]: > 100 µM
- TGI [58]: 67 µM
- TGI [5]: > 100 µM
- TGI [6]: > 100 µM
- TGI [7]: > 100 µM
- TGI [8]: > 100 µM
- TGI [9]: > 100 µM
- TGI [10]: > 100 µM
- TGI [11]: > 100 µM
- TGI [59]: > 100 µM
- TGI [13]: > 100 µM
- TGI [14]: 65.9 µM
- TGI [15]: 37.3 µM
- TGI [16]: 75.1 µM
- TGI [17]: > 100 µM
- TGI [18]: > 100 µM
- TGI [19]: > 100 µM
- TGI [20]: > 100 µM
- TGI [21]: > 100 µM
- TGI [22]: > 100 µM
- TGI [23]: > 100 µM
- TGI [24]: > 100 µM
- TGI [25]: > 100 µM
- TGI [26]: > 100 µM
- TGI [27]: > 100 µM
- TGI [28]: 61.2 µM
- TGI [29]: > 100 µM
- TGI [30]: > 100 µM
- TGI [31]: 37.4 µM
- TGI [32]: 45.2 µM
- TGI [33]: > 100 µM
- TGI [34]: 41.6 µM
- TGI [35]: > 100 µM
- TGI [36]: 95.5 µM
- TGI [37]: > 100 µM
- TGI [38]: > 100 µM
- TGI [39]: 41.7 µM
- TGI [40]: 32 µM
- TGI [41]: 42.9 µM
- TGI [42]: > 100 µM
- TGI [43]: > 100 µM
- TGI [44]: > 100 µM
- TGI [46]: > 100 µM
- TGI [48]: 48.4 µM
- TGI [49]: 37.5 µM
- TGI [51]: > 100 µM
- TGI [52]: > 100 µM
- TGI [53]: 52.2 µM
- TGI [54]: > 100 µM
- TGI [55]: > 100 µM
- TGI [56]: 66.6 µM
- TGI [57]: > 100 µM

SMILES: O=C(O)/C=C/C(=O)O
- TGI [1]: > 100 µM
- TGI [3]: > 100 µM
- TGI [4]: > 100 µM
- TGI [5]: > 100 µM
- TGI [6]: > 100 µM
- TGI [7]: > 100 µM
- TGI [8]: > 100 µM
- TGI [9]: > 100 µM
- TGI [10]: > 100 µM
- TGI [11]: > 100 µM
- TGI [59]: > 100 µM
- TGI [12]: > 100 µM
- TGI [13]: > 100 µM
- TGI [14]: > 100 µM
- TGI [15]: > 100 µM
- TGI [16]: > 100 µM
- TGI [17]: > 100 µM
- TGI [18]: > 100 µM
- TGI [19]: > 100 µM
- TGI [20]: > 100 µM
- TGI [21]: > 100 µM
- TGI [22]: > 100 µM
- TGI [23]: > 100 µM
- TGI [24]: > 100 µM
- TGI [25]: > 100 µM
- TGI [26]: > 100 µM
- TGI [27]: > 100 µM
- TGI [28]: > 100 µM
- TGI [29]: > 100 µM
- TGI [30]: > 100 µM
- TGI [31]: > 100 µM
- TGI [32]: > 100 µM
- TGI [33]: > 100 µM
- TGI [34]: > 100 µM
- TGI [35]: > 100 µM
- TGI [36]: > 100 µM
- TGI [37]: > 100 µM
- TGI [38]: > 100 µM
- TGI [40]: > 100 µM
- TGI [41]: > 100 µM
- TGI [42]: > 100 µM
- TGI [43]: > 100 µM
- TGI [44]: > 100 µM
- TGI [45]: > 100 µM
- TGI [47]: > 100 µM
- TGI [48]: > 100 µM
- TGI [49]: > 100 µM
- TGI [50]: > 100 µM
- TGI [51]: > 100 µM
- TGI [52]: > 100 µM
- TGI [53]: > 100 µM
- TGI [54]: > 100 µM
- TGI [55]: > 100 µM
- TGI [57]: > 100 µM

SMILES: CC(C)CCC/C(CBr)=C(\Cl)CCl
- TGI [1]: 3.67 µM
- TGI [2]: 35.2 µM
- TGI [3]: 31 µM
- TGI [4]: 23.3 µM
- TGI [58]: 3.52 µM
- TGI [5]: 9.35 µM
- TGI [7]: 3.54 µM
- TGI [8]: 17.2 µM
- TGI [9]: 30.3 µM
- TGI [10]: 21 µM
- TGI [11]: 7.03 µM
- TGI [59]: 11.4 µM
- TGI [13]: 20.8 µM
- TGI [14]: 4.54 µM
- TGI [15]: 7.46 µM
- TGI [16]: 5.97 µM
- TGI [17]: 4.05 µM
- TGI [19]: 5.51 µM
- TGI [20]: 0.542 µM
- TGI [21]: 4.23 µM
- TGI [22]: 7.88 µM
- TGI [23]: 12.9 µM
- TGI [24]: 8.34 µM
- TGI [25]: 6.25 µM
- TGI [26]: 3.91 µM
- TGI [27]: 2.88 µM
- TGI [28]: 25.7 µM
- TGI [29]: 8.11 µM
- TGI [30]: 18.5 µM
- TGI [31]: 0.409 µM
- TGI [32]: 10.7 µM
- TGI [33]: 6.73 µM
- TGI [34]: 2.93 µM
- TGI [35]: 29.1 µM
- TGI [36]: 3.86 µM
- TGI [37]: 13.2 µM
- TGI [39]: 8.17 µM
- TGI [40]: 9.89 µM
- TGI [41]: 26.5 µM
- TGI [42]: 23.6 µM
- TGI [43]: 2.97 µM
- TGI [44]: 5.19 µM
- TGI [45]: 6 µM
- TGI [46]: 22.3 µM
- TGI [47]: 8.85 µM
- TGI [48]: 28.6 µM
- TGI [49]: 4.71 µM
- TGI [51]: 3.07 µM
- TGI [53]: 3.72 µM
- TGI [54]: 13.4 µM
- TGI [55]: 4.78 µM
- TGI [57]: 8.4 µM
